Results as given in ChEMBL document CHEMBL1138886, “Dissociated nonsteroidal glucocorticoid receptor modulators; discovery of the agonist trigger in a tetrahydronaphthalene-benzoxazine series” (J Med Chem, 2006).
pEC50, pIC50: −log10 of the molar value. Calls of active or inactive are those of the source. The calls are words filed in the database; no cut-off is given here.

Key:
Glucocorticoid receptor [1] = target: T1, Glucocorticoid receptor (Homo sapiens, UniProt P04150)
T1 sequence (P04150 whole entry): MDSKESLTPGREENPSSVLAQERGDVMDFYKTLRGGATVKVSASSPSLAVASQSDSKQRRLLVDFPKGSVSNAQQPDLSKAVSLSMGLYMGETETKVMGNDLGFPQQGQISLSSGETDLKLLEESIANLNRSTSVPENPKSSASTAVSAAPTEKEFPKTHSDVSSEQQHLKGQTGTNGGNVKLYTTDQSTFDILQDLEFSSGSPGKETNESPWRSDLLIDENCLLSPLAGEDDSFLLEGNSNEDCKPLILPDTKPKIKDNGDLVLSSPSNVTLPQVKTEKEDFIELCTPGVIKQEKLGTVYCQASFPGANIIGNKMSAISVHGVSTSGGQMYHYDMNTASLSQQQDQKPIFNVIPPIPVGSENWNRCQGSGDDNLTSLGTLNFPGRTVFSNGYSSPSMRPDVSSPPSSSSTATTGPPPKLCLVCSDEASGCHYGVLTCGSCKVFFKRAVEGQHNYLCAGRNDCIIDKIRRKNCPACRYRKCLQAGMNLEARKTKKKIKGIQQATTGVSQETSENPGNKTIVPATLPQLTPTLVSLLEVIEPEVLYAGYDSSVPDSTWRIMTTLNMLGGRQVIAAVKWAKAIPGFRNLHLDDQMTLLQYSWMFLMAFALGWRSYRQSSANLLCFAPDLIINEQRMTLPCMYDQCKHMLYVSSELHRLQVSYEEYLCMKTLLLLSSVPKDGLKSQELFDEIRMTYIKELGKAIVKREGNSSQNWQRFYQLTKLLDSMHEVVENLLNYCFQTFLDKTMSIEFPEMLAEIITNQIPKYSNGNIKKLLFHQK
Description: Agonist activity at GR assessed as NF-kappaB-mediated transrepression of secreted placental alkaline phosphatase gene in human A549 cells

Glucocorticoid receptor [2] = target: T1, Glucocorticoid receptor; remark: listed apart in the source
Glucocorticoid receptor [3] = target: T1, Glucocorticoid receptor; remark: listed apart in the source
Glucocorticoid receptor [4] = target: T1, Glucocorticoid receptor; remark: listed apart in the source
[5] = target: T2, Glucocorticoid receptor (Homo sapiens) (UniProt P04150); test: Selectivity for MMTV transactivation assay over NF-kappaB transrepression assay for GR agonism in A549 cells; type: functional, cell-based
T2 sequence (whole entry): T1 sequence (P04150 whole entry)

Mus musculus = test: Anti-inflammatory activity against oxazolone-induced ear skin delayed types hypersensitivity model in topically dosed BALB/c mouse; type: functional
[6] = target: Estrogen receptor (Homo sapiens) (UniProt Q92731+P03372); test: Activity at ER; type: protein assay
Homo sapiens [7] = organism: Homo sapiens; test: Selectivity for GR over AR by functional assay
Homo sapiens [8] = organism: Homo sapiens; test: Selectivity for GR in NF-kappaB transrepression assay over MR antagonism; type: functional
Homo sapiens [9] = organism: Homo sapiens; test: Selectivity for GR over AR by binding assay
Homo sapiens [10] = organism: Homo sapiens; test: Selectivity for GR over PR by binding assay
Homo sapiens [11] = organism: Homo sapiens; test: Selectivity for GR over PR by functional assay

| Structure (SMILES) | pIC50 (Glucocorticoid receptor [1]) | pIC50 (Glucocorticoid receptor [2]) | pIC50 (Glucocorticoid receptor [3]) | also measured |
| --- | --- | --- | --- | --- |
| Cc1noc(=O)c2ccc(NC(=O)C(O)(CC3CCCc4c(N)cccc43)C(F)(F)F)cc12 (centres undefined) | < 6.00 | 7.60 | 5.70 |  |
| Cc1noc(=O)c2ccc(NC(=O)C(O)(CC3CCCc4c(Br)cccc43)C(F)(F)F)cc12 (stereo in doubt; 23b) |  | 7.40 |  |  |
| Cc1cccc2c1CCCC2CC(O)(C(=O)Nc1ccc2c(=O)onc(C)c2c1)C(F)(F)F (stereo in doubt; 19a) |  | 7.70 | 6.10 |  |
| Cc1noc(=O)c2ccc(NC(=O)C(O)(CC3CCCc4cc([N+](=O)[O-])ccc43)C(F)(F)F)cc12 (centres undefined) | < 6.00 | 6.90 |  |  |
| C[C@@H]1C[C@H]2[C@@H]3CCC4=CC(=O)C=C[C@]4(C)[C@@]3(F)[C@@H](O)C[C@]2(C)[C@@]1(O)C(=O)CO [DEXAMETHASONE] |  |  |  | ED50 (Mus musculus): 0.27 µg |
| Cc1noc(=O)c2ccc(NC(=O)C(O)(CC3(C(C)(C)C)CCCc4ccccc43)C(F)(F)F)cc12 (centres undefined) | < 5.00 | 7.94 | 6.11 |  |
| Cc1noc(=O)c2ccc(NC(=O)C(O)(CC3CCCc4c(Cl)cccc43)C(F)(F)F)cc12 (stereo in doubt; 20b) | < 6.00 | 8.30 | 6.40 |  |
| Cc1noc(=O)c2ccc(NC(=O)C(O)(CC3(C)CCCc4ccccc43)C(F)(F)F)cc12 (stereo in doubt; 35c) | < 5.00 | 6.60 |  |  |
| CCC1(CC(O)(C(=O)Nc2ccc3c(=O)onc(C)c3c2)C(F)(F)F)CCCc2cc([N+](=O)[O-])ccc21 (centres undefined) | < 5.00 | 8.10 | 6.10 |  |
| Cc1cccc2c1CCCC2CC(O)(C(=O)Nc1ccc2c(=O)onc(C)c2c1)C(F)(F)F (stereo in doubt; 19b) | < 6.00 | 8.50 | 6.70 |  |
| Cc1noc(=O)c2ccc(NC(=O)C(O)(CC3CCCc4c(Cl)cccc43)C(F)(F)F)cc12 (stereo in doubt; 20a) |  | 7.80 |  |  |
| Cc1noc(=O)c2ccc(NC(=O)[C@](O)(C[C@@]3(C4CCCC4)CCCc4ccccc43)C(F)(F)F)cc12 | 8.69 | 8.09 | 7.27 | pEC50 (Glucocorticoid receptor [4]): 7.75; Activity [6]: inactive; Selectivity ratio (Homo sapiens [7]): > 50; Selectivity ratio (Homo sapiens [8]): > 100; Selectivity ratio (Homo sapiens [9]): > 50; ED50 (Mus musculus): 0.05 µg |
| Cc1noc(=O)c2ccc(NC(=O)C(O)(CC3(c4ccccc4)CCCc4ccccc43)C(F)(F)F)cc12 (centres undefined) | < 5.00 | 7.84 | 5.86 |  |
| CCCCC1(CC(O)(C(=O)Nc2ccc3c(=O)onc(C)c3c2)C(F)(F)F)CCCc2ccccc21 (centres undefined) | 8.18 | 8.51 |  | pEC50 (Glucocorticoid receptor [4]): < 6.00 |
| CCC1(CC(O)(C(=O)Nc2ccc3c(=O)onc(C)c3c2)C(F)(F)F)CCCc2ccccc21 (centres undefined) | 8.30 | 8.21 | 6.70 | pEC50 (Glucocorticoid receptor [4]): 8.04; ED50 (Mus musculus): 5 µg |
| Cc1noc(=O)c2ccc(NC(=O)C(O)(CC3(C)CCCc4ccccc43)C(F)(F)F)cc12 (stereo in doubt; 35d) | 7.70 | 8.00 | 6.40 | pEC50 (Glucocorticoid receptor [4]): < 5.00 |
| Cc1noc(=O)c2ccc(NC(=O)C(O)(CC3CCCc4c(Br)cccc43)C(F)(F)F)cc12 (stereo in doubt; 23e) |  | 7.60 |  |  |
| CCC1(CC(O)(C(=O)Nc2ccc3c(=O)onc(C)c3c2)C(F)(F)F)CCOc2ccccc21 (stereo in doubt; 38) | < 5.00 | 7.93 |  |  |
| Cc1noc(=O)c2ccc(NC(=O)C(O)(CC3(C4CCC4)CCCc4ccccc43)C(F)(F)F)cc12 (centres undefined) | 8.31 | 8.02 | 6.78 | pEC50 (Glucocorticoid receptor [4]): 7.76 |
| CCC(CC)C1(CC(O)(C(=O)Nc2ccc3c(=O)onc(C)c3c2)C(F)(F)F)CCCc2ccccc21 (centres undefined) | 8.92 | 8.28 | 7.18 | pEC50 (Glucocorticoid receptor [4]): 8.20; Efficacy [5]: 50%; Selectivity ratio (Homo sapiens [10]): 10; Selectivity ratio (Homo sapiens [11]): 10; Activity [6]: inactive; Selectivity ratio (Homo sapiens [7]): > 50; Selectivity ratio (Homo sapiens [8]): > 100; Selectivity ratio (Homo sapiens [9]): > 50; ED50 (Mus musculus): 0.35 µg |
| Cc1noc(=O)c2ccc(NC(=O)C(O)(CC3(CC(C)C)CCCc4ccccc43)C(F)(F)F)cc12 (centres undefined) |  |  |  | pEC50 (Glucocorticoid receptor [4]): < 6.00 |
| Cc1noc(=O)c2ccc(NC(=O)C(O)(CC3(C(C)C)CCCc4ccccc43)C(F)(F)F)cc12 (centres undefined) | 8.53 | 8.32 | 6.89 | pEC50 (Glucocorticoid receptor [4]): 7.73; Efficacy [5]: 34% |
| Cc1noc(=O)c2ccc(NC(=O)C(O)(CC3CCCc4ccc(F)cc43)C(F)(F)F)cc12 (centres undefined) | < 6.00 | 7.80 |  |  |
| COc1cccc2c1CCCC2CC(O)(C(=O)Nc1ccc2c(=O)onc(C)c2c1)C(F)(F)F (centres undefined) | < 6.00 | 7.90 |  |  |

The next lines start with results.

| pIC50 (Glucocorticoid receptor [1]) | pIC50 (Glucocorticoid receptor [2]) | pIC50 (Glucocorticoid receptor [3]) | Structure (SMILES) | also measured |
| --- | --- | --- | --- | --- |
| < 5.00 | 8.20 | 6.50 | CCC1(CC(O)(C(=O)Nc2ccc3c(=O)onc(C)c3c2)C(F)(F)F)CCCc2ccc([N+](=O)[O-])cc21 (centres undefined) |  |
| 8.33 | 8.25 | 7.60 | CCCC1(CC(O)(C(=O)Nc2ccc3c(=O)onc(C)c3c2)C(F)(F)F)CCCc2ccccc21 (centres undefined) | pEC50 (Glucocorticoid receptor [4]): 7.70; Efficacy [5]: 67% |
| 8.10 | 8.00 |  | CCC1(CC(O)(C(=O)Nc2ccc3c(=O)onc(C)c3c2)C(F)(F)F)CCCCc2ccccc21 (centres undefined) | pEC50 (Glucocorticoid receptor [4]): < 5.00 |
| < 6.00 | 7.90 |  | Cc1noc(=O)c2ccc(NC(=O)C(O)(CC3CCCc4cc(F)ccc43)C(F)(F)F)cc12 (centres undefined) |  |
| < 5.00 | 8.30 | 6.60 | CCC1(CC(O)(C(=O)Nc2ccc3c(=O)onc(C)c3c2)C(F)(F)F)CCCc2c([N+](=O)[O-])cccc21 (centres undefined) |  |
|  | 8.20 |  | Cc1noc(=O)c2ccc(NC(=O)C(O)(CC3CCCc4c(Br)cccc43)C(F)(F)F)cc12 (stereo in doubt; 23c) |  |
| 8.48 | 8.07 | 6.70 | Cc1noc(=O)c2ccc(NC(=O)C(O)(CC3(C4CCCCC4)CCCc4ccccc43)C(F)(F)F)cc12 (centres undefined) | pEC50 (Glucocorticoid receptor [4]): 7.68 |
| < 5.00 | 6.50 |  | Cc1noc(=O)c2ccc(NC(=O)C(O)(CC3(C)CCCc4ccccc43)C(F)(F)F)cc12 (stereo in doubt; 35a) |  |
| 8.02 | 8.33 | 6.69 | Cc1noc(=O)c2ccc(NC(=O)C(O)(CC3(C4CC4)CCCc4ccccc43)C(F)(F)F)cc12 (centres undefined) | pEC50 (Glucocorticoid receptor [4]): 7.40 |
|  | 7.78 |  | CCC1(CC(O)(C(=O)Nc2ccc3c(=O)onc(C)c3c2)C(F)(F)F)CCOc2ccccc21 (stereo in doubt; 37) |  |
| < 6.00 | 7.90 |  | Cc1noc(=O)c2ccc(NC(=O)C(O)(CC3CCCc4c3cccc4[N+](=O)[O-])C(F)(F)F)cc12 (centres undefined) |  |
| < 6.00 | 8.10 |  | Cc1noc(=O)c2ccc(NC(=O)C(O)(CC3CCCc4ccccc43)C(F)(F)F)cc12 (centres undefined) |  |
|  | 7.80 | 6.10 | Cc1noc(=O)c2ccc(NC(=O)C(O)(CC3CCCc4c(Br)cccc43)C(F)(F)F)cc12 (stereo in doubt; 23a) |  |
| < 6.00 | 7.50 |  | Cc1noc(=O)c2ccc(NC(=O)C(O)(CC3CCCc4cccc(F)c43)C(F)(F)F)cc12 (centres undefined) |  |
| 5.90 | 8.10 |  | Cc1noc(=O)c2ccc(NC(=O)C(O)(CC3(C)CCCc4ccccc43)C(F)(F)F)cc12 (stereo in doubt; 35b) |  |
| < 6.00 | 7.80 | 6.30 | Cc1noc(=O)c2ccc(NC(=O)C(O)(CC3CCCc4c(F)cccc43)C(F)(F)F)cc12 (centres undefined) |  |
| < 6.00 | 7.70 |  | Cc1noc(=O)c2ccc(NC(=O)C(O)(CC3CCCc4ccc([N+](=O)[O-])cc43)C(F)(F)F)cc12 (centres undefined) |  |
| < 6.00 | 7.80 |  | Cc1noc(=O)c2ccc(NC(=O)C(O)(CC3CCCc4c(C#N)cccc43)C(F)(F)F)cc12 (centres undefined) |  |
| < 6.00 | 6.20 |  | Cc1noc(=O)c2ccc(NC(=O)C(O)(CC3CCCc4c(Br)cccc43)C(F)(F)F)cc12 (stereo in doubt; 23f) |  |
